Laboratory results from patent US12642797B2, “Coated granule, solid dispersion, and preparation containing vortioxetine hydrobromide for oral taste masking” (Seasons Biotechnology (Taizhou) Co., Ltd., priority 2019, dated 2026).
Counter-ions that a name gives are not always drawn.

Tests used:
oral cavity and tongue = experiment: Taste and irritation test by subjects (self-made sample vs reference sample); type: in vivo, human; details: for Instantaneous irritation / Delayed irritation: hemihydrobromide
Experimental: In the examples, the taste masking effects of test samples were evaluated by the subject's perception of the bitterness and irritation of the oral cavity and tongue. The Taste and Irritation Classification Tested by the Subjects: [table]

[1] = Solubility in sodium acetate medium pH 6.8 simulating the oral environment (USP method); type: physicochemical; details: sodium acetate medium pH 6.8, USP method; hemihydrobromide

In the case of Cc1ccc(Sc2ccccc2N2CCNCC2)c(C)c1 [vortioxetine hemihydrobromide], the Instantaneous irritation (oral cavity and tongue; Subject 4, 0-1 minute, powder equivalent to 20 mg of vortioxetine tasted, listed as Reference sample (1e)) is reported as “++ (+ + Irritating, tolerable)”, the Instantaneous irritation (oral cavity and tongue; Subject 4, 0-1 minute, powder equivalent to 20 mg of vortioxetine tasted, listed as Reference sample (2a)) is reported as “++ (+ + Irritating, tolerable)” and the Instantaneous irritation (oral cavity and tongue; Subject 4, 0-1 minute, powder equivalent to 20 mg of vortioxetine tasted, listed as Reference sample (2c)) is reported as “++ (+ + Irritating, tolerable)”. The Instantaneous irritation (oral cavity and tongue; Subject 4, 0-1 minute, powder equivalent to 20 mg of vortioxetine tasted, listed as Reference sample (3a)) was “+++ (+ + + Strong irritation, intolerable)”, the Instantaneous irritation (oral cavity and tongue; Subject 4, 0-1 minute, powder equivalent to 20 mg of vortioxetine tasted, listed as Reference sample (3b)) was “+++ (+ + + Strong irritation, intolerable)” and the Instantaneous irritation (oral cavity and tongue; Subject 4, 0-1 minute, powder equivalent to 20 mg of vortioxetine tasted, listed as Reference sample (3c)) was “+++ (+ + + Strong irritation, intolerable)”. The Instantaneous irritation (oral cavity and tongue; Subject 4, 0-1 minute, powder equivalent to 20 mg of vortioxetine tasted, listed as Reference sample (4a)) was “+++ (+ + + Strong irritation, intolerable)”, the Instantaneous irritation (oral cavity and tongue; Subject 4, 0-1 minute, powder equivalent to 20 mg of vortioxetine tasted, listed as Reference sample (1d)) was “++ (+ + Irritating, tolerable)” and the Instantaneous irritation (oral cavity and tongue; Subject 4, 0-1 minute, powder equivalent to 20 mg of vortioxetine tasted, listed as Reference sample (2d)) was “++ (+ + Irritating, tolerable)”. The “Delayed irritation” value (oral cavity and tongue; Subject 4, powder equivalent to 20 mg of vortioxetine tasted, listed as Reference sample (1a)) was 15 to 30 min, the “Delayed irritation” value (oral cavity and tongue; Subject 4, powder equivalent to 20 mg of vortioxetine tasted, listed as Reference sample (1e)) was 15 to 30 min and the “Delayed irritation” value (oral cavity and tongue; Subject 4, powder equivalent to 20 mg of vortioxetine tasted, listed as Reference sample (2a)) was greater than 30 min. For the same compound, the “Delayed irritation” value (oral cavity and tongue; Subject 4, powder equivalent to 20 mg of vortioxetine tasted, listed as Reference sample (2c)) was greater than 30 min, the “Delayed irritation” value (oral cavity and tongue; Subject 4, powder equivalent to 20 mg of vortioxetine tasted, listed as Reference sample (3a)) was 1 to 15 min and the “Delayed irritation” value (oral cavity and tongue; Subject 4, powder equivalent to 20 mg of vortioxetine tasted, listed as Reference sample (3b)) was 1 to 15 min. For the same compound, the “Delayed irritation” value (oral cavity and tongue; Subject 4, powder equivalent to 20 mg of vortioxetine tasted, listed as Reference sample (3c)) was greater than 30 min, the “Delayed irritation” value (oral cavity and tongue; Subject 4, powder equivalent to 20 mg of vortioxetine tasted, listed as Reference sample (4a)) was greater than 30 min and the “Delayed irritation” value (oral cavity and tongue; Subject 4, powder equivalent to 20 mg of vortioxetine tasted, listed as Reference sample (5)) was greater than 30 min. The “Delayed irritation” value (oral cavity and tongue; Subject 4, powder equivalent to 20 mg of vortioxetine tasted, listed as Reference sample (6)) was 15 to 30 min, the “Delayed irritation” value (oral cavity and tongue; Subject 4, powder equivalent to 20 mg of vortioxetine tasted, listed as Reference sample (7a)) was greater than 30 min and the “Delayed irritation” value (oral cavity and tongue; Subject 4, powder equivalent to 20 mg of vortioxetine tasted, listed as Reference sample (8a)) was greater than 30 min. For the same compound, the “Delayed irritation” value (oral cavity and tongue; Subject 4, powder equivalent to 20 mg of vortioxetine tasted, listed as Reference sample (8b)) was greater than 30 min, the “Delayed irritation” value (oral cavity and tongue; Subject 4, powder equivalent to 20 mg of vortioxetine tasted, listed as Reference sample (1d)) was 15 to 30 min and the “Delayed irritation” value (oral cavity and tongue; Subject 4, powder equivalent to 20 mg of vortioxetine tasted, listed as Reference sample (2d)) was greater than 30 min. For the same compound, the Instantaneous irritation (oral cavity and tongue; Subject 5, 0-1 minute, powder equivalent to 20 mg of vortioxetine tasted, listed as Reference sample (1a)) was “+++ (+ + + Strong irritation, intolerable)”, the Instantaneous irritation (oral cavity and tongue; Subject 5, 0-1 minute, powder equivalent to 20 mg of vortioxetine tasted, listed as Reference sample (1e)) was “+++ (+ + + Strong irritation, intolerable)” and the Instantaneous irritation (oral cavity and tongue; Subject 5, 0-1 minute, powder equivalent to 20 mg of vortioxetine tasted, listed as Reference sample (2a)) was “+++ (+ + + Strong irritation, intolerable)”. The Instantaneous irritation (oral cavity and tongue; Subject 5, 0-1 minute, powder equivalent to 20 mg of vortioxetine tasted, listed as Reference sample (2c)) was “+++ (+ + + Strong irritation, intolerable)”, the Instantaneous irritation (oral cavity and tongue; Subject 5, 0-1 minute, powder equivalent to 20 mg of vortioxetine tasted, listed as Reference sample (3a)) was “+++ (+ + + Strong irritation, intolerable)” and the Instantaneous irritation (oral cavity and tongue; Subject 5, 0-1 minute, powder equivalent to 20 mg of vortioxetine tasted, listed as Reference sample (3b)) was “+++ (+ + + Strong irritation, intolerable)”. For the same compound, the Instantaneous irritation (oral cavity and tongue; Subject 5, 0-1 minute, powder equivalent to 20 mg of vortioxetine tasted, listed as Reference sample (3c)) was “++ (+ + Irritating, tolerable)”, the Instantaneous irritation (oral cavity and tongue; Subject 5, 0-1 minute, powder equivalent to 20 mg of vortioxetine tasted, listed as Reference sample (4a)) was “++ (+ + Irritating, tolerable)” and the Instantaneous irritation (oral cavity and tongue; Subject 5, 0-1 minute, powder equivalent to 20 mg of vortioxetine tasted, listed as Reference sample (1d)) was “+++ (+ + + Strong irritation, intolerable)”. The Instantaneous irritation (oral cavity and tongue; Subject 5, 0-1 minute, powder equivalent to 20 mg of vortioxetine tasted, listed as Reference sample (2d)) was “++ (+ + Irritating, tolerable)”, the “Delayed irritation” value (oral cavity and tongue; Subject 5, powder equivalent to 20 mg of vortioxetine tasted, listed as Reference sample (1a)) was greater than 30 min and the “Delayed irritation” value (oral cavity and tongue; Subject 5, powder equivalent to 20 mg of vortioxetine tasted, listed as Reference sample (1e)) was greater than 30 min. For the same compound, the “Delayed irritation” value (oral cavity and tongue; Subject 5, powder equivalent to 20 mg of vortioxetine tasted, listed as Reference sample (2a)) was 15 to 30 min, the “Delayed irritation” value (oral cavity and tongue; Subject 5, powder equivalent to 20 mg of vortioxetine tasted, listed as Reference sample (2c)) was 15 to 30 min and the “Delayed irritation” value (oral cavity and tongue; Subject 5, powder equivalent to 20 mg of vortioxetine tasted, listed as Reference sample (3a)) was 1 to 15 min. The “Delayed irritation” value (oral cavity and tongue; Subject 5, powder equivalent to 20 mg of vortioxetine tasted, listed as Reference sample (3b)) was 1 to 15 min, the “Delayed irritation” value (oral cavity and tongue; Subject 5, powder equivalent to 20 mg of vortioxetine tasted, listed as Reference sample (3c)) was greater than 30 min and the “Delayed irritation” value (oral cavity and tongue; Subject 5, powder equivalent to 20 mg of vortioxetine tasted, listed as Reference sample (4a)) was 15 to 30 min. The “Delayed irritation” value (oral cavity and tongue; Subject 5, powder equivalent to 20 mg of vortioxetine tasted, listed as Reference sample (5)) was 15 to 30 min, the “Delayed irritation” value (oral cavity and tongue; Subject 5, powder equivalent to 20 mg of vortioxetine tasted, listed as Reference sample (6)) was greater than 30 min and the “Delayed irritation” value (oral cavity and tongue; Subject 5, powder equivalent to 20 mg of vortioxetine tasted, listed as Reference sample (7a)) was greater than 30 min. The “Delayed irritation” value (oral cavity and tongue; Subject 5, powder equivalent to 20 mg of vortioxetine tasted, listed as Reference sample (8a)) was 15 to 30 min, the “Delayed irritation” value (oral cavity and tongue; Subject 5, powder equivalent to 20 mg of vortioxetine tasted, listed as Reference sample (8b)) was 15 to 30 min and the “Delayed irritation” value (oral cavity and tongue; Subject 5, powder equivalent to 20 mg of vortioxetine tasted, listed as Reference sample (1d)) was greater than 30 min. The “Delayed irritation” value (oral cavity and tongue; Subject 5, powder equivalent to 20 mg of vortioxetine tasted, listed as Reference sample (2d)) was 15 to 30 min, the “Delayed irritation, time to disappear” value (oral cavity and tongue; average of 5 subjects, powder equivalent to 20 mg of vortioxetine) was “more than 30 minutes” and the Instantaneous irritation (oral cavity and tongue; average of 5 subjects, powder equivalent to 20 mg of vortioxetine, listed as Reference sample (1a)) was “+++ (+ + + Strong irritation, intolerable)”. For the same compound, the Instantaneous irritation (oral cavity and tongue; average of 5 subjects, powder equivalent to 20 mg of vortioxetine, listed as Reference sample (1e)) was “+++ (+ + + Strong irritation, intolerable)”, the Instantaneous irritation (oral cavity and tongue; average of 5 subjects, powder equivalent to 20 mg of vortioxetine, listed as Reference sample (2a)) was “+++ (+ + + Strong irritation, intolerable)” and the Instantaneous irritation (oral cavity and tongue; average of 5 subjects, powder equivalent to 20 mg of vortioxetine, listed as Reference sample (2c)) was “++ (+ + Irritating, tolerable)”. The Instantaneous irritation (oral cavity and tongue; average of 5 subjects, powder equivalent to 20 mg of vortioxetine, listed as Reference sample (3a)) was “++ (+ + Irritating, tolerable)”, the Instantaneous irritation (oral cavity and tongue; average of 5 subjects, powder equivalent to 20 mg of vortioxetine, listed as Reference sample (3b)) was “++ (+ + Irritating, tolerable)” and the Instantaneous irritation (oral cavity and tongue; average of 5 subjects, powder equivalent to 20 mg of vortioxetine, listed as Reference sample (3c)) was “++ (+ + Irritating, tolerable)”. The Instantaneous irritation (oral cavity and tongue; average of 5 subjects, powder equivalent to 20 mg of vortioxetine, listed as Reference sample (4a)) was “+++ (+ + + Strong irritation, intolerable)”, the Instantaneous irritation (oral cavity and tongue; average of 5 subjects, powder equivalent to 20 mg of vortioxetine, listed as Reference sample (5)) was “++ (+ + Irritating, tolerable)” and the Instantaneous irritation (oral cavity and tongue; average of 5 subjects, powder equivalent to 20 mg of vortioxetine, listed as Reference sample (6)) was “++ (+ + Irritating, tolerable)”. The Instantaneous irritation (oral cavity and tongue; average of 5 subjects, powder equivalent to 20 mg of vortioxetine, listed as Reference sample (7a)) was “+++ (+ + + Strong irritation, intolerable)”, the Instantaneous irritation (oral cavity and tongue; average of 5 subjects, powder equivalent to 20 mg of vortioxetine, listed as Reference sample (8a)) was “++ (+ + Irritating, tolerable)” and the Instantaneous irritation (oral cavity and tongue; average of 5 subjects, powder equivalent to 20 mg of vortioxetine, listed as Reference sample (8b)) was “++ (+ + Irritating, tolerable)”. For the same compound, the Instantaneous irritation (oral cavity and tongue; average of 5 subjects, powder equivalent to 20 mg of vortioxetine, listed as Reference sample (9a)) was “+++ (+ + + Strong irritation, intolerable)”, the Instantaneous irritation (oral cavity and tongue; average of 5 subjects, powder equivalent to 20 mg of vortioxetine, listed as Reference sample (9c)) was “+++ (+ + + Strong irritation, intolerable)” and the Instantaneous irritation (oral cavity and tongue; average of 5 subjects, powder equivalent to 20 mg of vortioxetine, listed as Reference sample (9e)) was “++ (+ + Irritating, tolerable)”. The Instantaneous irritation (oral cavity and tongue; average of 5 subjects, powder equivalent to 20 mg of vortioxetine, listed as Reference sample (11a)) was “++ (+ + Irritating, tolerable)”, the Instantaneous irritation (oral cavity and tongue; average of 5 subjects, powder equivalent to 20 mg of vortioxetine, listed as Reference sample (12a)) was “+++ (+ + + Strong irritation, intolerable)” and the Instantaneous irritation (oral cavity and tongue; average of 5 subjects, powder equivalent to 20 mg of vortioxetine, listed as Reference sample (12b)) was “+++ (+ + + Strong irritation, intolerable)”. The Instantaneous irritation (oral cavity and tongue; average of 5 subjects, powder equivalent to 20 mg of vortioxetine, listed as Reference sample (13a)) was “++ (+ + Irritating, tolerable)”, the Instantaneous irritation (oral cavity and tongue; average of 5 subjects, powder equivalent to 20 mg of vortioxetine, listed as Reference sample (13b)) was “++ (+ + Irritating, tolerable)” and the Instantaneous irritation (oral cavity and tongue; average of 5 subjects, powder equivalent to 20 mg of vortioxetine, listed as Reference sample (14a)) was “++ (+ + Irritating, tolerable)”. The Instantaneous irritation (oral cavity and tongue; average of 5 subjects, powder equivalent to 20 mg of vortioxetine, listed as Reference sample (16)) was “++ (+ + Irritating, tolerable)”, the Instantaneous irritation (oral cavity and tongue; average of 5 subjects, powder equivalent to 20 mg of vortioxetine, listed as Reference sample (17)) was “++ (+ + Irritating, tolerable)” and the Instantaneous irritation (oral cavity and tongue; average of 5 subjects, powder equivalent to 20 mg of vortioxetine, listed as Reference sample (1d)) was “+++ (+ + + Strong irritation, intolerable)”. For the same compound, the Instantaneous irritation (oral cavity and tongue; average of 5 subjects, powder equivalent to 20 mg of vortioxetine, listed as Reference sample (2d)) was “++ (+ + Irritating, tolerable)”, the Instantaneous irritation (oral cavity and tongue; average of 5 subjects, powder equivalent to 20 mg of vortioxetine, listed as Reference sample (9d)) was “++ (+ + Irritating, tolerable)” and the solubility [1] was 140 µg/mL.
